The target in one data set is T1, HIV protease (Human immunodeficiency virus type 1 group M subtype B, UniProt P04585).
T1 construct: plasmid containing HIV protease under the control of an inducible T7 promoter; made in house; host or cells: E. coli (inclusion bodies, T7 promoter)
Nature of the data set: biochemical. Details: species or system HIV-1. As to the method: HIV Protease Inhibition Assay—Spectroscopic Method
Inclusion bodies were solubilized in 8M urea, 50 mM tris pH 8.0. Protease activity was recovered by dilution 20-fold into buffer containing 50 mM sodium acetate pH 5.5, 1 mM EDTA, 10% glycerol and 5% ethylene glycol. Enzyme was used at a final concentration of 1.0-10 ug/ml.
Stock solutions of 10 mM were prepared in DMSO.
All further dilutions were done in DMSO.

For the next data set, the system named is HIV-1 (RF) in MT-2 cells. Nature of the data set: microbe, parasite or virus in culture. In kind it is cell-based. The procedure, abridged: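 Read-out: gag and pol viral RNA captured by 5′-biotinylated oligonucleotides on streptavidin-coated wells, detected with alkaline phosphatase-linked reporter oligonucleotides, calibrated against BH10 in vitro transcripts. Virus stocks (RF, MN, IIIB) come from H9 cultures; MT-2 host cells kept in RPMI 1640, 5% FCS.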

Where [1] appears, read: Table 1d, upper part, read-out: Ki.
Setting [2] is: Human immunodeficiency virus 1, MT2, 24 h, Table 1d, upper part, read-out: IC90.
The mark [3] stands for this setting: Human immunodeficiency virus 1, MT2, Table 1e, read-out: IC90.

Where two headings read alike, the source gives them in different places.

What is called melting point is the temperature of the solid-liquid transition. One may read the Ki as the equilibrium dissociation constant of an inhibitor or competing ligand from its target. A word on the IC90: it is the concentration needed for an effect of 90%.

In turn, `O=C1N(CCN2CCOCC2)C(Cc2ccccc2)C(O)C(O)C(Cc2ccccc2)N1CCN1CCOCC1` (stereo not shown) [Example 1AA] gave a melting point of 70 to 75 °C. Moreover, the Ki on HIV protease (Table 1a, read-out: Ki) is above 1000 nM.
`O=C1N(CC2CC2)[C@H](Cc2ccccc2)C[C@@H](O)[C@@H](Cc2ccccc2)N1CC1CC1` [Example 7U]: on HIV protease (setting [1]), the Ki is below 10 nM. Moreover, the IC90 with HIV-1 (RF) in MT-2 cells (setting [2]) was below 10 µg/mL.
Take `N#Cc1cccc(CN2C(=O)N3C(Cc4ccccc4)C3C(O)C2Cc2ccccc2)c1` (stereo not shown) [Example 21F]: at HIV protease (Table 2j, read-out: Ki), the Ki is above 1000 nM. The IC90 entry in the data set with HIV-1 (RF) in MT-2 cells (Table 2j) was “+ (+=>100 μg/mL)”.
In the case of `O=C1N[C@H](C(O)Cc2ccccc2)[C@@H](O)[C@@H](Cc2ccccc2)N1Cc1ccccc1` (stereo partly shown) [Example 8Q], the Ki at HIV protease (Table 1e, read-out: Ki) fell in the range of 10 to 1000 nM. In the data set with HIV-1 (RF) in MT-2 cells (Table 1e), the IC90 entry is given as “++ (++=10 to 100 μg/mL)”.
The compound `C#CCN1C(=O)N(CC#C)C(Cc2ccccc2)C(O)C(O)C1Cc1ccccc1` (stereo not shown) [Example 1AP] came in with a melting point of 198 to 200 °C. On HIV protease (Table 1a, read-out: Ki), the inhibitory constant (Ki) lay in the range of 10 to 1000 nM.
For the compound `CCCCCN1C(=O)N(CCCCC)C(Cc2ccccc2)C(O)C(O)C1Cc1ccccc1` (stereo not shown) [Example 1AK], the melting point is 125 to 127 °C. The inhibition constant Ki at HIV protease (Ki) was below 10 nM.
As for `O=C1N(Cc2ccccc2)C(Cc2ccccc2)C(O)C(O)C(Cc2ccccc2)N1CC1CC1` (stereo not shown) [Example 2F], the Ki on HIV protease (Table 2A, read-out: Ki) is below 10 nM; at HIV protease (second table headed Table 2A, read-out: Ki), below 10 nM. The IC90 is below 10 µg/mL with HIV-1 (RF) in MT-2 cells (Human immunodeficiency virus 1, MT2, Table 2A, read-out: IC90) and below 10 µg/mL in the data set with HIV-1 (RF) in MT-2 cells (Human immunodeficiency virus 1, MT2, second table headed Table 2A, read-out: IC90).
Regarding `N#Cc1cccc(CN2C(=O)N(Cc3cccc(C#N)c3)[C@H](Cc3ccccc3)[C@H](O)C2CCc2ccccc2)c1` (stereo partly shown) [Example 8AN], the Ki at HIV protease (Ki) is above 1000 nM. In addition, the IC90 entry in the data set with HIV-1 (RF) in MT-2 cells (Table 1e) was “+ (+=>100 μg/mL)”.
For the compound `CC(C)CCCN1C(=O)N(CCCC(C)C)C(Cc2ccccc2)C(O)C(O)C1Cc1ccccc1` (stereo not shown) [Example 1AM], the melting point lay in the range of 120 to 122 °C. In addition, the Ki at HIV protease (Ki) is below 10 nM.
Turning to `O=C1N(Cc2ccccc2)C(CCc2ccccc2)[C@@H](O)[C@@H](Cc2ccccc2)N1Cc1ccccc1` (stereo partly shown) [Example 8AD], at HIV protease (Table 1e, read-out: Ki), the Ki lay in the range of 10 to 1000 nM. The IC90 in the data set on HIV-1 (RF) in MT-2 cells (setting [3]) is below 10 µg/mL.
For `N#CN=C1N(Cc2ccc(C#N)cc2)C(Cc2ccccc2)C(O)C(O)C(Cc2ccccc2)N1Cc1ccc(C#N)cc1` (stereo not shown) [Example 1CG], the inhibition constant Ki at HIV protease (Ki) is 10 to 1000 nM. In addition, the IC90 with HIV-1 (RF) in MT-2 cells (Human immunodeficiency virus 1, MT2, Table 1c, read-out: IC90) was below 10 µg/mL.
Take `CC(=O)OC1C(O)C(Cc2ccccc2)N(Cc2ccc3ccccc3c2)C(=O)N(Cc2ccc3ccccc3c2)C1Cc1ccccc1` (stereo not shown) [Example 7K]: the Ki on HIV protease (setting [1]) lay within 10 to 1000 nM. Moreover, in the data set on HIV-1 (RF) in MT-2 cells (setting [2]), the 90% effect concentration (IC90) was above 100 µg/mL.
With `O=C1N(CC2CC2)C(C(O)Cc2ccccc2)[C@@H](O)[C@@H](Cc2ccccc2)N1CC1CC1` (stereo partly shown) [Example 7Z], at HIV protease (Table 1e, read-out: Ki), the Ki lay in the range of 10 to 1000 nM. Also, in the data set with HIV-1 (RF) in MT-2 cells (setting [3]), the IC90 was below 10 µg/mL.
For `O=C1N(CC2CC2)C(Cc2ccccc2)C2OS(=O)OC2C(Cc2ccccc2)N1CC1CC1` (stereo not shown) [Example 7F], the Ki at HIV protease (setting [1]) is below 10 nM. Besides, the IC90 in the data set with HIV-1 (RF) in MT-2 cells (setting [2]) was below 10 µg/mL.
For `CCCCCCN1C(=O)N(CCCCCC)C(Cc2ccccc2)C(O)C(O)C1Cc1ccccc1` (stereo not shown) [Example 1Y], the melting point lay within 110 to 112 °C. At HIV protease (Ki), this compound came in with a Ki below 10 nM.
Compound `CN1C(=O)N(C)C(Cc2ccccc2)C(O)C(O)C1Cc1ccccc1` (stereo not shown) [Example 1W] returned a melting point of 170 to 174 °C. For the same compound, the Ki on HIV protease (Ki) was above 1000 nM.
In the case of `C=CCN1C(=O)N(CC=C)C(Cc2ccccc2)C2OS(=O)OC2C1Cc1ccccc1` (stereo not shown) [Example 7C], the Ki on HIV protease (setting [1]) was below 10 nM. In addition, the IC90 in the data set with HIV-1 (RF) in MT-2 cells (setting [2]) was below 10 µg/mL.
The matching figures for `CC(=O)OC1C(OC(C)=O)C(Cc2ccccc2)N(Cc2ccc3ccccc3c2)C(=O)N(Cc2ccc3ccccc3c2)C1Cc1ccccc1` (stereo not shown) [Example 7J]: 10 to 1000 nM and above 100 µg/mL.
Consider `O=C1NC(Cc2ccccc2)C(O)C2C(Cc3ccccc3)N12` (stereo not shown) [Example 21A], for which the Ki on HIV protease (Table 2j, read-out: Ki) is above 1000 nM. In addition, the IC90 entry in the data set with HIV-1 (RF) in MT-2 cells (Table 2j) is listed as “++/+ (The ++/+ is used in the cases where an IC90 was determined to be >50 μg/mL)”.
Regarding `CC(C)CCCCCN1C(=O)N(CCCCCC(C)C)C(Cc2ccccc2)C(O)C(O)C1Cc1ccccc1` (stereo not shown) [Example 1AL], the melting point fell in the range of 144 to 145 °C. Also, the Ki at HIV protease (Ki) is 10 to 1000 nM.
Compound `O=C1N(Cc2cccc(CO)c2)[C@H](CCc2ccccc2)[C@@H](O)[C@@H](Cc2ccccc2)N1Cc1cccc(CO)c1` [Example 8Z] came in with a Ki at HIV protease (Ki) below 10 nM. In addition, the IC90 in the data set with HIV-1 (RF) in MT-2 cells (setting [3]) was below 10 µg/mL.
Turning to `CCCC1(OC)OC2C(O1)C(Cc1ccccc1)N(Cc1ccc3ccccc3c1)C(=O)N(Cc1ccc3ccccc3c1)C2Cc1ccccc1` (stereo not shown) [Example 7S], on HIV protease (setting [1]), the Ki is above 1000 nM. Moreover, the IC90 in the data set on HIV-1 (RF) in MT-2 cells (setting [2]) is above 50 µg/mL.

The values are drawn from patent publication USRE37781E1, “Substituted cyclic carbonyls and derivatives thereof useful as retroviral protease inhibitors” (DuPont Pharmaceuticals Company, priority 1991, dated 2002).
